{"source": "patent US12116344B2", "about": "“Crystalline forms of a pharmaceutical compound” (Azafaros B.V., priority 2020, dated 2024)", "key": {"[1]": {"experiment": "Stability of the crystalline form (transition of Form 2 into Form 3)", "assay_type": "physicochemical", "details": "Form 2 transitions into Form 3 above around 30° C. in about 1-5 min, or in solvent for more than 5 min at around 25° C.; listed as Form 3", "protocol": "Alternatively, Form 2 transitioned into Form 3 upon equilibration in solvent (e.g. acetone) for more than 5 min at around 25° C."}, "[2]": {"experiment": "Brain:plasma exposure after repeat oral administration PND 11-70", "assay_type": "in vivo, mice", "details": "NPC1 (−/−) (Balb/c background), mouse, brain and plasma", "protocol": "24 NPC1 (−/−) mice were treated per oral gavage with AZ-3102-00 from post-natal day 11 (P11) to post-natal-day 70 (P70). Age-matched control mice included 6 NPC (−/−) and 4 NPC (+/−) mice treated with vehicle, and 4 NPC (+/+) mice received AZ-3102-00. After the last treatment on P70, NPC (−/−) mice (n=4 per timepoint) were euthanized by IP injection of 600 mg/kg pentobarbital at the following timepoints: 30 min, 1 h, 2 h, 4 h, 8 h, and 24 h. Control mice were also sacrificed after the last treatment (not time critical). Terminal blood was collected by heart puncture in EDTA coated tubes. Blood plasma was collected by centrifugation (3000×g for 10 minutes at room temperature) and 50 μL plasma aliquots were transferred to 1.5 mL tubes, frozen on dry ice and stored at −80° C.\n24 NPC1 (−/−) mice (groups D to I) were treated per oral gavage (10 mL/kg) with AZ-3102-00 from post-natal day 11 (P11) to post-natal-day 70 (P70). Dosing will start at 1.5 mg/kg from P11 to P25, followed by 3 mg/kg from P26 to P70. Control mice included 6 NPC1 (−/−) and 4 NPC (+/−) mice treated with vehicle and 4 NPC (+/+) mice received AZ-3102-00 (groups A to C).\nAfter the last treatment on P70, NPC (−/−) mice (n=4 per timepoint; groups D to I) were euthanized by IP injection of 600 mg/kg pentobarbital a the following timepoints: 30 min, 1 h, 2 h, 4 h, 8 h, and 24 h. Control mice (groups A, B and C) were also sacrificed after the last treatment (not time critical).\nAt 30 min (Group D), 1 h (+/−5 min. Group E), 2 h (+/−5 min. Group F), 4 h (+/−5 min. Group G), 8 h (+/−5 min. Group H), and 24 h (+/−5 min. Group 1) (all time critical) after the last treatment on P70, mice were euthanized by i.p. injection.\n(§1) Plasma samples were first mixed for protein precipitation with a solution of acetonitrile containing 50 ng/mL of AZ-3101 (internal standard). After 5 minutes incubation at room temperature, the samples were centrifuged for 5 minutes (13000 rpm, 4° C.) and the supernatant was diluted 10-fold in ultrapure water with 0.1% formic acid.\nas §1, with “Brain tissues” for “Plasma samples”, “homogenized in a solution of ultrapure water:methanol (1:1) with 0.1% formic acid (4 mL for each gram of tissue) using a FastPrep 24™ Microtube homogenizer (MP Biomedicals, USA). Brain homogenates were” for “first”, “10” for “50”\nDiluted plasma and brain tissue supernatants were injected into an Agilent LC system (Agilent, USA) by an automated sample injector (SIL-30, Shimadzu, USA). […] Data were calibrated and quantified using the Analyst™ data system (AB Sciex, version 1.6.3). […]"}}, "note": "Like-named read-outs stand apart in the source and are kept apart here."}
{"compound": "OC[C@H]1[C@@H](O)[C@H](O)[C@@H](O)CN1CCCCCOCc1ccc(-c2ccccc2)c(F)c1", "note": "[AZ-3102]", "values": [{"measurement": "Stability of the crystalline form", "setting": "[1]", "result": "better stability"}, {"measurement": "Kp", "setting": "[2]; female, Female mice, read-out: Brain:Plasma Ratio AUC0-24", "result": 1.37}, {"measurement": "Kp", "setting": "[2]; female, Female mice, read-out: Brain:Plasma Ratio Cmax", "result": 0.41}, {"measurement": "Kp", "setting": "[2]; male, Male mice, read-out: Brain:Plasma Ratio AUC0-24", "result": 0.95}, {"measurement": "Kp", "setting": "[2]; male, Male mice, read-out: Brain:Plasma Ratio Cmax", "result": 0.26}]}
